Measurements reported in patent US20100298141A1, “SUBSTITUTED PYRIDINE N-OXIDE HERBICIDES” (E. I. DU PONT DE NEMOURS AND COMPANY, priority 2007, published 2010).

Key:
duck salad = experiment: Test C flooded paddy test; assay type: in vivo, Heteranthera limosa; conditions: Flood
From the text: (§1) At time of treatment, test pots were flooded to 3 cm above the soil surface, treated by application of test compounds directly to the paddy water, and then maintained at that water depth for the duration of the test. Treated plants and controls were maintained in a greenhouse for 13 to 15 days, after which time all species were compared to controls and visually evaluated. […] A dash (-) response means no test result.

barnyardgrass [1] = experiment: Test A pre-/postemergence greenhouse test; assay type: in vivo, Echinochloa crus-galli; conditions: for Plant response rating, Barnyardgrass: 0 to 100 scale where 0 is no effect and 100 is complete control; for Barnyardgrass plant response rating: 0 to 100 scale
From the text: (§2) Seeds of barnyardgrass (Echinochloa crus-galli), crabgrass (Digitaria sanguinalis), giant foxtail (Setaria faberi), morningglory (Ipomoea spp.), redroot pigweed (Amaranthus retroflexus), velvetleaf (Abutilon theophrasti), wheat (Triticum aestivum), and corn (Zea mays) were planted into a blend of loam soil and sand and treated preemergence with a directed soil spray using test compounds formulated in a non-phytotoxic solvent mixture which included a surfactant. At the same time these species were also treated with postemergence applications of test compounds formulated in the same manner. Plants ranged in height from two to ten cm and were in the one- to two-leaf stage for the postemergence treatment. Treated plants and untreated controls were maintained in a greenhouse for approximately ten days, after which time all treated plants were compared to untreated controls and visually evaluated for injury. […] A dash (-) response means no test results.

wheat = experiment: Test A pre-/postemergence greenhouse test; assay type: in vivo, Triticum aestivum; conditions: for Plant response rating, Wheat: 0 to 100 scale where 0 is no effect and 100 is complete control; for Wheat plant response rating: 0 to 100 scale
From the text: as §2

redroot pigweed = experiment: Test A pre-/postemergence greenhouse test; assay type: in vivo, Amaranthus retroflexus; conditions: for Plant response rating, Pigweed: 0 to 100 scale where 0 is no effect and 100 is complete control; for Pigweed plant response rating: 0 to 100 scale
From the text: as §2

corn = experiment: Test A pre-/postemergence greenhouse test; assay type: in vivo, Zea mays; conditions: for Plant response rating, Corn: 0 to 100 scale where 0 is no effect and 100 is complete control; for Corn plant response rating: 0 to 100 scale
From the text: as §2

umbrella sedge = experiment: Test C flooded paddy test; assay type: in vivo, Cyperus difformis; conditions: Flood
From the text: as §1

rice = experiment: Test C flooded paddy test; assay type: in vivo, Oryza sativa; conditions: Flood
From the text: as §1

morningglory = experiment: Test A pre-/postemergence greenhouse test; assay type: in vivo, Ipomoea spp.; conditions: for Plant response rating, Morningglory: 0 to 100 scale where 0 is no effect and 100 is complete control; for Morningglory plant response rating: 0 to 100 scale
From the text: as §2

giant foxtail = experiment: Test A pre-/postemergence greenhouse test; assay type: in vivo, Setaria faberi; conditions: for Plant response rating, Foxtail, Giant: 0 to 100 scale where 0 is no effect and 100 is complete control; for Foxtail, Giant plant response rating: 0 to 100 scale
From the text: as §2

barnyardgrass [2] = experiment: Test C flooded paddy test; assay type: in vivo, Echinochloa crus-galli; conditions: Flood
From the text: as §1

crabgrass = experiment: Test A pre-/postemergence greenhouse test; assay type: in vivo, Digitaria sanguinalis; conditions: for Plant response rating, Crabgrass, Large: 0 to 100 scale where 0 is no effect and 100 is complete control; for Crabgrass, Large plant response rating: 0 to 100 scale
From the text: as §2

velvetleaf = experiment: Test A pre-/postemergence greenhouse test; assay type: in vivo, Abutilon theophrasti; conditions: for Plant response rating, Velvetleaf: 0 to 100 scale where 0 is no effect and 100 is complete control; for Velvetleaf plant response rating: 0 to 100 scale
From the text: as §2

[3] = 31 g ai/ha, scale 0 to 100 (0 no effect, 100 complete control)
[4] = 62 g ai/ha, scale 0 to 100 (0 no effect, 100 complete control)
[5] = 125 g ai/ha, scale 0 to 100, 0 no effect, 100 complete control, 13 to 15 days
[6] = 250 g ai/ha, scale 0 to 100, 0 no effect, 100 complete control, 13 to 15 days
[7] = Postemergence, 500 g ai/ha, 0 is no effect, 100 is complete control
[8] = Preemergence, 125 g ai/ha, 0 no effect, 100 complete control
[9] = Preemergence, 500 g ai/ha, 0 no effect, 100 complete control
[10] = 62 g ai/ha, scale 0 to 100, 0 no effect, 100 complete control, 13 to 15 days

## Cc1ccc[n+]([O-])c1S(=O)(=O)Cc1c(C(F)(F)F)nn(C)c1OC(F)F [Compound 113]
Duck salad; [3]
  Plant response rating, Ducksalad: 0
Duck salad; [4]
  Plant response rating, Ducksalad: 0
Duck salad; [5]
  Plant response rating, Ducksalad: 0
Duck salad; [6]
  Plant response rating, Ducksalad: 0
Barnyardgrass [1]; Postemergence, 125 g ai/ha
  Plant response rating, Barnyardgrass: 70
Barnyardgrass [1]; [7]
  Barnyardgrass plant response rating: 80
Barnyardgrass [1]; [8]
  Barnyardgrass plant response rating: 70
Barnyardgrass [1]; [9]
  Barnyardgrass plant response rating: 100
wheat; Postemergence, 125 g ai/ha
  Plant response rating, Wheat: 40
wheat; [7]
  Wheat plant response rating: 60
wheat; [8]
  Wheat plant response rating: 0
wheat; [9]
  Wheat plant response rating: 60
Redroot pigweed; Postemergence, 125 g ai/ha
  Plant response rating, Pigweed: 10
Redroot pigweed; [7]
  Pigweed plant response rating: 50
Redroot pigweed; [8]
  Pigweed plant response rating: 10
Redroot pigweed; [9]
  Pigweed plant response rating: 100
corn; Postemergence, 125 g ai/ha
  Plant response rating, Corn: 0
corn; [7]
  Corn plant response rating: 60
corn; [8]
  Corn plant response rating: 0
corn; [9]
  Corn plant response rating: 80
Umbrella sedge; [3]
  Plant response rating, Sedge, Umbrella: 0
Umbrella sedge; [4]
  Plant response rating, Sedge, Umbrella: 0
Umbrella sedge; [5]
  Plant response rating, Sedge, Umbrella: 0
Umbrella sedge; [6]
  Plant response rating, Sedge, Umbrella: 0
rice; [3]
  Plant response rating, Rice: 0
rice; [4]
  Plant response rating, Rice: 0
rice; [5]
  Plant response rating, Rice: 0
rice; [6]
  Plant response rating, Rice: 0
morningglory; Postemergence, 125 g ai/ha
  Plant response rating, Morningglory: 30
morningglory; [7]
  Morningglory plant response rating: 60
morningglory; [9]
  Morningglory plant response rating: 80
Giant foxtail; Postemergence, 125 g ai/ha
  Plant response rating, Foxtail, Giant: 60
Giant foxtail; [7]
  Foxtail, Giant plant response rating: 80
Giant foxtail; [8]
  Foxtail, Giant plant response rating: 80
Giant foxtail; [9]
  Foxtail, Giant plant response rating: 90
Barnyardgrass [2]; [3]
  Plant response rating, Barnyardgrass: 0
Barnyardgrass [2]; [4]
  Plant response rating, Barnyardgrass: 0
Barnyardgrass [2]; [5]
  Plant response rating, Barnyardgrass: 0
Barnyardgrass [2]; [6]
  Plant response rating, Barnyardgrass: 0
crabgrass; Postemergence, 125 g ai/ha
  Plant response rating, Crabgrass, Large: 60
crabgrass; [7]
  Crabgrass, Large plant response rating: 80
crabgrass; [8]
  Crabgrass, Large plant response rating: 80
crabgrass; [9]
  Crabgrass, Large plant response rating: 90
velvetleaf; Postemergence, 125 g ai/ha
  Plant response rating, Velvetleaf: 40
velvetleaf; [7]
  Velvetleaf plant response rating: 50
velvetleaf; [8]
  Velvetleaf plant response rating: 0
velvetleaf; [9]
  Velvetleaf plant response rating: 40

## Cc1cc[n+]([O-])c([S+]([O-])Cc2c(C(F)(F)F)nn(CC(F)(F)F)c2Cl)c1 (centres unmarked) [Compound 48]
Duck salad; [10]
  Plant response rating, Ducksalad: 0
Duck salad; [6]
  Plant response rating, Ducksalad: 25
Barnyardgrass [1]; Postemergence, 125 g ai/ha
  Plant response rating, Barnyardgrass: 40
Barnyardgrass [1]; [7]
  Barnyardgrass plant response rating: 70
Barnyardgrass [1]; [8]
  Barnyardgrass plant response rating: 50
Barnyardgrass [1]; Preemergence, 500 g ai/ha
  Plant response rating, Barnyardgrass: 90
wheat; Postemergence, 125 g ai/ha
  Plant response rating, Wheat: 0
wheat; [7]
  Wheat plant response rating: 50
wheat; [8]
  Wheat plant response rating: 20
wheat; Preemergence, 500 g ai/ha
  Plant response rating, Wheat: 80
Redroot pigweed; Postemergence, 125 g ai/ha
  Plant response rating, Pigweed: 50
Redroot pigweed; [7]
  Pigweed plant response rating: 60
Redroot pigweed; [8]
  Pigweed plant response rating: 70
Redroot pigweed; Preemergence, 500 g ai/ha
  Plant response rating, Pigweed: 100
corn; Postemergence, 125 g ai/ha
  Plant response rating, Corn: 0
corn; [7]
  Corn plant response rating: 50
corn; [8]
  Corn plant response rating: 0
corn; Preemergence, 500 g ai/ha
  Plant response rating, Corn: 60
Umbrella sedge; [6]
  Plant response rating, Sedge, Umbrella: 50
rice; [10]
  Plant response rating, Rice: 0
rice; [6]
  Plant response rating, Rice: 25
morningglory; Postemergence, 125 g ai/ha
  Plant response rating, Morningglory: 30
morningglory; [7]
  Morningglory plant response rating: 50
morningglory; [8]
  Morningglory plant response rating: 40
morningglory; Preemergence, 500 g ai/ha
  Plant response rating, Morningglory: 80
Giant foxtail; Postemergence, 125 g ai/ha
  Plant response rating, Foxtail, Giant: 70
Giant foxtail; [7]
  Foxtail, Giant plant response rating: 80
Giant foxtail; [8]
  Foxtail, Giant plant response rating: 80
Giant foxtail; Preemergence, 500 g ai/ha
  Plant response rating, Foxtail, Giant: 90
Barnyardgrass [2]; [10]
  Plant response rating, Barnyardgrass: 0
Barnyardgrass [2]; [6]
  Plant response rating, Barnyardgrass: 0
crabgrass; Postemergence, 125 g ai/ha
  Plant response rating, Crabgrass, Large: 50
crabgrass; [7]
  Crabgrass, Large plant response rating: 70
crabgrass; [8]
  Crabgrass, Large plant response rating: 70
crabgrass; Preemergence, 500 g ai/ha
  Plant response rating, Crabgrass, Large: 90
velvetleaf; Postemergence, 125 g ai/ha
  Plant response rating, Velvetleaf: 0
velvetleaf; [7]
  Velvetleaf plant response rating: 40
velvetleaf; [8]
  Velvetleaf plant response rating: 0
velvetleaf; Preemergence, 500 g ai/ha
  Plant response rating, Velvetleaf: 60
